Experimental data as given in paper PMC11292009, “Mapping protein binding sites by photoreactive fragment pharmacophores” (Communications Chemistry, 2024).
Where “and” joins values, the source holds several entries; their conditions need not be identical. Identical values can stand only once.

Columns and labels:
Assay type in all cases: binding
[1] = test system: carbonic anhydrase II (CA); assay: Intact protein MS photoaffinity labeling screen, carbonic anhydrase; conditions: intact protein MS after 10 min irradiation
Method in brief: (§1)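 Fragments are tested singly per well. Protein and fragment incubate 15 min for non-covalent association, then the plate goes directly to intact protein mass spectrometry, where mass shifts matching fragment addition give the labeling %.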

BRD4-BD1 = test system: T1, BRD4-BD1; assay: Intact MS photoaffinity labeling screen, BRD4-BD1 (302 nm, LCMS-TOF); conditions: for MS labeling percentage, BRD4: BRD4-BD1, 302 nm 10 min
T1 construct: screened the PhP library against the first bromodomain of BRD4 (BRD4-BD1); purchased GSK/GenScript
Method in brief: (§2)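 Labeling detected as mass additions in deconvoluted intact-protein LCMS-TOF spectra. Protein at 1 μM in PBS was first mixed with one fragment per well on ice for 15 min, followed by 10 min UV exposure at 302 nm.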

KRas^G12D = test system: T2, KRas^G12D; assay: Intact MS photoaffinity labeling screen, KRas G12D (302 nm, LCMS-TOF); conditions: for MS labeling percentage, KRas: KRas G12D, 302 nm 10 min
T2 construct: purchased GSK/GenScript
Method in brief: as §2

lysozyme (Lyo) = assay: Intact protein MS photoaffinity labeling screen, lysozyme; conditions: intact protein MS after 10 min irradiation
Method in brief: as §1

myoglobin (Myo) = assay: Intact protein MS photoaffinity labeling screen, myoglobin; conditions: intact protein MS after 10 min irradiation
Method in brief: as §1

STAT5B-NTD [2] = test system: T3, STAT5B-NTD; assay: Intact MS photoaffinity labeling screen, STAT5B-NTD (365 nm, UHPLC-MS); conditions: for MS labeling percentage, STAT5B: STAT5B-NTD, 365 nm 10 min, no photocatalyst;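 for MS labeling percentage, STAT5B: 0.17 µL of 100 mM DMSO fragment stock added to the protein sample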
T3 construct: His-SUMO (N, cleaved yes); made in house; host or cells: E. coli BL21 RILP
Method in brief: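 Intact-protein labeling detected by UHPLC-MS in positive ion mode over m/z 100–2000. Samples were first photo-crosslinked at 365 nm for 10 min at 4 °C. Before irradiation, 7 µM STAT5B in PBS pH 7.4 was pre-incubated with probe for 1 h in the dark at room temperature.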

STAT5B-NTD [3] = test system: T3, STAT5B-NTD; assay: Intact MS labeling screen, STAT5B-NTD conjugated with photocatalyst Ir-G2-PEG3-COOH (450 nm); conditions: 450 nm 10 min;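 note: 0.14 µL of 100 mM DMSO fragment stock added to the conjugate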
Method in brief: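 Ir-G2-PEG3-COOH photocatalyst (10 eq) activated 30 min with EDC/NHS/BOP, then conjugated to STAT5B-NTD (7 µM) overnight at RT or 1 h at 37 °C in dark. PhP added, 1 h dark, then 450 nm irradiation 10 min at 4 °C; labeling read by intact LC-MS, positive ion mode, m/z 100–2000.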

[4] = test system: CA, Lyo, Myo, BRD4-BD1, KRas G12D, STAT5B-NTD; assay: Intact MS labeling compared over all protein targets; conditions: for Labeling of the other protein targets (vs. preferred target): each of the other targets
Procedure: Using a plate-based format with one fragment per well, each fragment was incubated with the target proteins for 15 min to allow for the formation of non-covalent interactions. The plate was then irradiated at 302 or 365 nm for 10 min to enable the bound fragments to crosslink to the protein[26]. Finally, the results were directly analyzed from the plate using intact protein mass spectrometry by observing the mass additions that correspond to successful labeling (Fig. 2c, for labeling % values see Supplementary data). The library was first characterized against three benchmark proteins like carbonic anhydrase (CA), lysozyme (Lyo), and myoglobin (Myo).
The PhP library was screened against BRD4-BD1 and KRas^G12D as follows. Using a Labcyte Echo® 555 Liquid Handler, 150 nL of fragment solution (20 mM) was transferred into a Greiner 384 low-volume plate (white) to prepare the probe plate. The probe plate was placed on ice. 15 μL of protein stock solution (1 μM BRD4-BD1 (GSK/GenScript) or KRas^G12D (GSK/GenScript) in PBS buffer) was dispensed into wells containing fragments. The plate was left on ice for 15 min for incubation, then irradiated at 302 nm for 10 min, and centrifuged (1000 rpm, 1 min) to remove any bubbles. The plate was then analyzed by LCMS-TOF mass spectrometry (Agilent 1200 series liquid chromatography with Agilent Bio-HPLC PLRP-S (1000 Å, 5 µm × 50 mm × 1.0 mm, PL1312-1502) reverse phase HPLC column at 70 °C equipped with an Agilent G6224 time-of-flight (ToF), see Supplementary Note 2 for the full protocols). The deconvoluted spectra were analyzed using R Studio software.
During the analysis, the column temperature was maintained at a constant 60 °C, and a sample volume of 3 µL was injected for each analysis. Data acquisition was conducted in positive ion mode within the m/z 100–2000 (mass-to-charge ratio) range. For the full protocol and spectra of the hits, see Supplementary Note 2.

[5] = PhP library sheet "PhP", binary flag printed as 0 or 1, key not given
[6] = hit status flag, 1 = hit, 0 = no hit

Row | SMILES | MS labeling percentage, CA [1] [%] | BRD4-BD1 (experimental hit status) (BRD4-BD1; [5]) | MS labeling percentage, KRas (KRas^G12D) [%] | KRAS-G12D (experimental hit status) (KRas^G12D; [5]) | MS labeling percentage, Lyo (lysozyme (Lyo)) [%] | MS labeling percentage, Myo (myoglobin (Myo)) [%] | STAT5B-NTD (experimental hit status) (STAT5B-NTD [2]; [5]) | MS labeling percentage, STAT5B (STAT5B-NTD [2]) [%] | MS labeling percentage, STAT5B+photocat (STAT5B-NTD [3]) [%] | Labeling efficiency over all protein targets (mean ± spread) [4] [%] | MS labeling percentage, BRD4 (BRD4-BD1) [%] | Labeling of the other protein targets (vs. preferred target) [4] | Number of targets labeled in higher than 10% amount ([4]; of the six protein targets) | BRD4-BD1 (experimental hit status) (BRD4-BD1; [6]) | KRAS-G12D (experimental hit status) (KRas^G12D; [6]) | STAT5B-NTD (experimental hit status) (STAT5B-NTD [2]; [6])
1 | COc1ccc(NS(=O)(=O)c2cccc(NC(=O)CCC3(C)N=N3)c2)cc1 [PhP087, COc1ccc(cc1)NS(=O)(=O)c2cccc(c2)NC(=O)CCC3(C)N=N3] | 18.9 | 0 | 12.6 | 0 | 1.5 | 3.2 | 0 | 2.9 | 8 | – | 0.7 | – | two | – | – | –
2 | CC1(CCC(=O)NCc2ccc(-c3ccc(O)cc3)cc2)N=N1 [PhP088, N1=NC1(C)CCC(=O)NCc2ccc(cc2)-c3ccc(O)cc3] | 0 | 0 | 0.2 | 0 | 4.8 | 0.2 | 0 | 0 | 5.7 | – | 0.5 | > 1% and < 1% | – | – | – | –
3 | COc1ccc(-c2cnc(CNC(=O)CCC3(C)N=N3)[nH]2)cc1 [PhP098, COc1ccc(cc1)-c2cnc([nH]2)CNC(=O)CCC3(C)N=N3] | 1.6 | – | 9.6 | – | 0.5 | 2.3 | – | 1.4 | 3.1 | 3.3 ± 3.1 | 4.3 | – | – | 0 | 0 | 0
4 | CC1(CCC(=O)NCc2ccc(CNC(=O)OC(C)(C)C)cc2)N=N1 [PhP099, CC(C)(C)OC(=O)NCc1ccc(cc1)CNC(=O)CCC2(C)N=N2] | 12.8 | – | 7.7 | – | 2.2 | 4.3 | – | 2.9 | 19.3 | 5.2 ± 4 | 1.1 | – | – | 0 | 0 | 0

Now from value to compound, other results behind:

Row | MS labeling percentage, CA [1] [%] | SMILES | BRD4-BD1 (experimental hit status) (BRD4-BD1; [5]) | MS labeling percentage, KRas (KRas^G12D) [%] | KRAS-G12D (experimental hit status) (KRas^G12D; [5]) | MS labeling percentage, Lyo (lysozyme (Lyo)) [%] | MS labeling percentage, Myo (myoglobin (Myo)) [%] | STAT5B-NTD (experimental hit status) (STAT5B-NTD [2]; [5]) | MS labeling percentage, STAT5B (STAT5B-NTD [2]) [%] | MS labeling percentage, STAT5B+photocat (STAT5B-NTD [3]) [%] | Labeling efficiency over all protein targets (mean ± spread) [4] [%] | MS labeling percentage, BRD4 (BRD4-BD1) [%] | Labeling of the other protein targets (vs. preferred target) [4] | Number of targets labeled in higher than 10% amount ([4]; of the six protein targets) | BRD4-BD1 (experimental hit status) (BRD4-BD1; [6]) | KRAS-G12D (experimental hit status) (KRas^G12D; [6]) | STAT5B-NTD (experimental hit status) (STAT5B-NTD [2]; [6])
5 | 3 | Cc1noc(C)c1-c1ccc(CNC(=O)CCC2(C)N=N2)cc1 [PhP080, Cc1noc(C)c1-c2ccc(cc2)CNC(=O)CCC3(C)N=N3] | 0 | 3.2 | 0 | 7.7 | 3 | 0 | 1 | 21.1 | 3.6 ± 2.2 | – | – | – | – | – | –
6 | 0 | CCCc1nn(C)c(C(N)=O)c1NC(=O)CCC1(C)N=N1 [PhP082, CCCc1nn(C)c(C(=O)N)c1NC(=O)CCC2(C)N=N2] | 0 | 0 | 0 | 0 | 52.9 | 0 | 0 | 2.4 | – | 0.2 | > 0.5% and < 0.5% | – | – | – | –
7 | 0.3 | Cc1nc(CCNC(=O)CCC2(C)N=N2)sc1C [PhP092, Cc1nc(sc1C)CCNC(=O)CCC2(C)N=N2] | 0 | 0.1 | 0 | 35.6 | 0.1 | 0 | 0 | 0.8 | – | 0.5 | > 1% and < 1% | – | – | – | –
